The text below walks through data of patent publication US20250163104A1, “MACROCYCLIC IMMUNOMODULATORS” (priority 2021, published 2025).

The target of the test is T1, human PD-1 / PD-L1-Ig binding on Jurkat cell line over-expressing human PD-1 (Jurkat-PD-1) (Homo sapiens, UniProt Q15116).
T1 construct: expressed in transfected cells; host or cells: Jurkat
The test can be described thus: Jurkat-PD-1 Cell Binding High-Content Screening Assay (CBA). It counts as cell-based. The note with it: Jurkat-PD-1 cells, PE-labeled PD-L1-Ig 20 nM final; read-out: Jurkat HPD1_PDL1 IC50. The gist of the method:
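Binding of fluorescent PD-L1-Ig (phycoerythrin linked via the Ig tag, 20 nM final) to PD-1-overexpressing Jurkat cells was imaged after a 2 h, 37° C compound pretreatment and 1 hour ligand incubation.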

Where a SMILES comes first, the peptide text is derived from it. Bridges are numbered along the chain shown (N, C = ends). [ ]: non-standard residue; d: D form. The star is where a group is joined. ξ: configuration not given here. Ala(6-(2-MePh)pyridin-3-yl) = Cc1ccccc1-c1ccc(C[C@H](N)C(=O)O)cn1; Trp(βS-Me) = C[C@@H](c1c[nH]c2ccccc12)[C@H](N)C(=O)O; Phe(3-CF3) = N[C@@H](Cc1cccc(C(F)(F)F)c1)C(=O)O; Ala(morpholin-4-yl) = N[C@@H](CN1CCOCC1)C(=O)O; Phe(4-COOH) = N[C@@H](Cc1ccc(C(=O)O)cc1)C(=O)O; Bip = N[C@@H](Cc1ccc(-c2ccccc2)cc1)C(=O)O; Phe(3-Me) = Cc1cccc(C[C@H](N)C(=O)O)c1; Val(3-OH) = CC(C)(O)[C@H](N)C(=O)O; 4Pal = N[C@@H](Cc1ccncc1)C(=O)O; Cha = N[C@@H](CC1CCCCC1)C(=O)O; Ile(3ξ) = CCC(C)[C@H](N)C(=O)O; Thr(3ξ) = CC(O)[C@H](N)C(=O)O; Carboxymethyl = O=C(O)C*; Orn = NCCC[C@H](N)C(=O)O; Dab = NCC[C@H](N)C(=O)O

What is called IC50 is the midpoint of a concentration-inhibition curve.

T1 sequence (Q15116 25-288): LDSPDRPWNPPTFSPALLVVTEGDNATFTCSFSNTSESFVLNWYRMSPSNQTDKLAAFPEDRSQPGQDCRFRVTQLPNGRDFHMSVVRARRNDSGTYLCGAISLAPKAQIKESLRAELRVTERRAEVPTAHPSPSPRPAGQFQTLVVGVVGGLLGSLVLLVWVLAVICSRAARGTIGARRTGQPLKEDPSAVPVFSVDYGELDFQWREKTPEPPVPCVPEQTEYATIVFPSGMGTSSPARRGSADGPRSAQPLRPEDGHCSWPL

For `CC(C)C[C@H]1NC(=O)[C@H](CCCN)NC(=O)[C@H](Cc2ccc(C(=O)O)cc2)NC(=O)[C@H](Cc2ccc(-c3ccccc3)cc2)NC(=O)[C@H]([C@@H](C)c2c[nH]c3ccccc23)NC(=O)[C@H](Cc2cccc(C(F)(F)F)c2)NC(=O)[C@H](CC(=O)O)NC(=O)[C@H](Cc2ccc(C(=O)O)cc2)NC(=O)[C@H](CN2CCOCC2)NC(=O)CSC[C@@H](C(=O)N[C@@H](CCN)C(N)=O)NC(=O)[C@H](CCC(=O)O)NC(=O)[C@H](C(C)C)NC(=O)[C@H](CC2CCCCC2)NC(=O)[C@H](CCN)NC1=O` [Example 2748] ({CH2CO}-[Ala(morpholin-4-yl)][Phe(4-COOH)]D[Phe(3-CF3)][Trp(βS-Me)][Bip][Phe(4-COOH)][Orn][dL][Dab][Cha]VEC[Dab]-NH2; thioether N-14), the IC50 came out at 25.2 nM. For `Cc1ccccc1-c1ccc(C[C@@H]2NC(=O)[C@H](Cc3cccc(C(F)(F)F)c3)NC(=O)[C@H](CC(=O)O)NC(=O)[C@H](Cc3ccc(C(=O)O)cc3)NC(=O)[C@H](CN3CCOCC3)NC(=O)CSC[C@@H](C(=O)N[C@@H](CCN)C(N)=O)NC(=O)[C@H](CCC(=O)O)NC(=O)[C@H](C(C)C)NC(=O)[C@H](CC3CCCCC3)NC(=O)[C@H](CCN)NC(=O)[C@@H](CC(C)C)NC(=O)[C@H](CCCN)NC(=O)[C@H](Cc3ccc(C(=O)O)cc3)NC(=O)[C@H](Cc3ccc(-c4ccccc4)cc3)NC2=O)cn1` [Example 2732] ({CH2CO}-[Ala(morpholin-4-yl)][Phe(4-COOH)]D[Phe(3-CF3)][Ala(6-(2-MePh)pyridin-3-yl)][Bip][Phe(4-COOH)][Orn][dL][Dab][Cha]VEC[Dab]-NH2; thioether N-14) the value was 1.7 nM; for `CCC(C)[C@@H]1NC(=O)[C@H](Cc2ccc(-c3ccccc3)cc2)NC(=O)[C@H](CC2CCCCC2)NC(=O)[C@H](Cc2c[nH]c3ccccc23)NC(=O)[C@H](CC(=O)O)NC(=O)[C@H](Cc2ccc(OCC(=O)O)cc2)NC(=O)[C@H](C(C)O)NC(=O)CSC[C@@H](C(=O)N[C@@H](CC(N)=O)C(=O)O)NC(=O)[C@H](CO)NC(=O)[C@H](C(C)C)NC(=O)[C@H](CC(C)C)NC(=O)[C@H](CCN)NC(=O)[C@@H](CC(C)C)NC(=O)[C@H](CCCN)NC1=O` (stereo partly drawn) [Compound 2575] ({CH2CO}-[Thr(3ξ)]Y(Carboxymethyl)DW[Cha][Bip][Ile(3ξ)][Orn][dL][Dab]LVSCN-OH; thioether N-14), 60.1 nM; for `Cc1cccc(C[C@@H]2NC(=O)[C@H](CC(=O)O)NC(=O)[C@H](Cc3ccc(C(=O)O)cc3)NC(=O)[C@H](Cc3ccncc3)NC(=O)CSC[C@@H](C(=O)N[C@@H](CCN)C(N)=O)NC(=O)[C@H](CO)NC(=O)[C@H](C(C)(C)O)NC(=O)[C@H](CC3CCCCC3)NC(=O)[C@H](CCN)NC(=O)[C@@H](CC(C)C)NC(=O)[C@H](CCCN)NC(=O)[C@H](Cc3ccc(OCC(=O)O)cc3)NC(=O)[C@H](Cc3ccc(-c4ccccc4)cc3)NC(=O)[C@H](Cc3ccc(OCC(=O)O)cc3)NC2=O)c1` [Compound 2293] ({CH2CO}-[4Pal][Phe(4-COOH)]D[Phe(3-Me)]Y(Carboxymethyl)[Bip]Y(Carboxymethyl)[Orn][dL][Dab][Cha][Val(3-OH)]SC[Dab]-NH2; thioether N-14), 5.2 nM.

`CC[C@H](C)[C@@H]1NC(=O)[C@H](Cc2ccc(-c3ccccc3)cc2)NC(=O)[C@H](C(C)C)NC(=O)[C@H](Cc2c[nH]c3ccccc23)NC(=O)[C@H](CC(=O)O)NC(=O)[C@H](Cc2ccc(O)cc2)NC(=O)[C@H](Cc2ccc(OCC(=O)O)cc2)NC(=O)CSC[C@@H](C(=O)N[C@@H](C)C(N)=O)NC(=O)[C@H]([C@@H](C)O)NC(=O)[C@H](C(C)C)NC(=O)[C@H](CC(C)C)NC(=O)[C@H](CCCNC(=N)N)NC(=O)[C@@H](CC(C)C)NC(=O)[C@H](CCCN)NC1=O` [Compound 1142] ({CH2CO}-Y(Carboxymethyl)YDWV[Bip]I[Orn][dL]RLVTCA-NH2; thioether N-14): the 50% inhibitory concentration (IC50) was 19.6 nM.
